Test results from PubChem BioAssay (NCI).
Several values for one entry are separate records, joined by “and”; a condition that tells them apart may be missing. Equal entries are not always repeated.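 1) Cells in 96-well plates. 2) Compound, 48 h, 5 concentrations. 3) Linear interpolation between surrounding doses. 4) Unreached endpoint = highest concentration. The concentration for 50% growth inhibition is given as GI50. TGI denotes the concentration required for complete inhibition of growth.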

What was measured:
Test in all cases: NCI tumour cell line growth inhibition, 48 h
DLD-1 colon = tested on: DLD-1 colon
DMS 114 small cell lung = tested on: DMS 114 small cell lung
HCT-116 colon = tested on: HCT-116 colon
HCT-15 colon = tested on: HCT-15 colon
HL-60(TB) leukemia = tested on: HL-60(TB) leukemia
HT29 colon = tested on: HT29 colon
K-562 leukemia = tested on: K-562 leukemia
KM12 colon = tested on: KM12 colon
KM20L2 colon = tested on: KM20L2 colon
LOX IMVI melanoma = tested on: LOX IMVI melanoma
LXFL 529 NSCLC = tested on: LXFL 529 NSCLC
MOLT-4 leukemia = tested on: MOLT-4 leukemia
NCI-H522 lung = tested on: NCI-H522 lung
OVCAR-5 ovarian = tested on: OVCAR-5 ovarian
RPMI-8226 leukemia = tested on: RPMI-8226 leukemia
SF-295 CNS = tested on: SF-295 CNS
SR leukemia = tested on: SR leukemia
786-0 renal = tested on: 786-0 renal
A549 NSCLC = tested on: A549 NSCLC
ACHN renal = tested on: ACHN renal
COLO 205 colon = tested on: COLO 205 colon
HOP-62 NSCLC = tested on: HOP-62 NSCLC
HOP-92 NSCLC = tested on: HOP-92 NSCLC
IGROV1 ovarian = tested on: IGROV1 ovarian
M14 melanoma = tested on: M14 melanoma
M19-MEL melanoma = tested on: M19-MEL melanoma
NCI-H226 lung = tested on: NCI-H226 lung
NCI-H23 lung = tested on: NCI-H23 lung
NCI-H460 lung = tested on: NCI-H460 lung
OVCAR-3 ovarian = tested on: OVCAR-3 ovarian
OVCAR-4 ovarian = tested on: OVCAR-4 ovarian
OVCAR-8 ovarian = tested on: OVCAR-8 ovarian
SF-268 CNS = tested on: SF-268 CNS
SF-539 CNS = tested on: SF-539 CNS
SK-MEL-28 melanoma = tested on: SK-MEL-28 melanoma
SK-OV-3 ovarian = tested on: SK-OV-3 ovarian
SNB-19 CNS = tested on: SNB-19 CNS
SNB-75 CNS = tested on: SNB-75 CNS
SNB-78 CNS = tested on: SNB-78 CNS
SW-620 colon = tested on: SW-620 colon
TK-10 renal = tested on: TK-10 renal
U251 CNS = tested on: U251 CNS
UACC-257 melanoma = tested on: UACC-257 melanoma
UACC-62 melanoma = tested on: UACC-62 melanoma
UO-31 renal = tested on: UO-31 renal

In the case of `CC1C(=O)C(C)C(c2ccccc2)N(C)C1c1ccccc1` (stereo not drawn), the GI50 (DLD-1 colon) is reported as 26.2 µM and 85.4 µM, the TGI (DLD-1 colon) is reported as greater than 100 µM and the GI50 (DMS 114 small cell lung) is reported as 30 µM and 75.1 µM. The TGI (DMS 114 small cell lung) was 99.7 µM and > 100 µM, the GI50 (HCT-116 colon) was 15.7 µM and 40.3 µM and the TGI (HCT-116 colon) was 30.8 µM and > 100 µM. For the same compound, the GI50 (HCT-15 colon) was 23.6 µM and 61.1 µM, the TGI (HCT-15 colon) was 81.8 µM and > 100 µM and the TGI (HL-60(TB) leukemia) was 45.5 µM and > 100 µM. For the same compound, the TGI (HT29 colon) was 91.4 µM and > 100 µM, the GI50 (K-562 leukemia) was 33.2 µM and 73.4 µM and the TGI (K-562 leukemia) was greater than 100 µM. For the same compound, the GI50 (KM12 colon) was 23.7 µM and 90.3 µM, the TGI (KM12 colon) was 67.7 µM and > 100 µM and the GI50 (KM20L2 colon) was 32.8 µM and 85.8 µM. For the same compound, the TGI (KM20L2 colon) was greater than 100 µM, the GI50 (LOX IMVI melanoma) was 15.8 µM and 86.2 µM and the TGI (LOX IMVI melanoma) was 31.4 µM and > 100 µM. The GI50 (LXFL 529 NSCLC) was 42.6 µM and 97.9 µM, the TGI (LXFL 529 NSCLC) was greater than 100 µM and the TGI (MOLT-4 leukemia) was 57.7 µM and > 100 µM. The GI50 (NCI-H522 lung) was 21.6 µM and 63 µM, the TGI (NCI-H522 lung) was 52.5 µM and > 100 µM and the TGI (OVCAR-5 ovarian) was greater than 100 µM. For the same compound, the TGI (RPMI-8226 leukemia) was 54.3 µM, the GI50 (SF-295 CNS) was 28 µM and 87.4 µM and the TGI (SF-295 CNS) was 93.9 µM and > 100 µM. The TGI (SR leukemia) was 48.2 µM and > 100 µM.
For `Oc1ccccc1-c1n[nH]c(=S)n1/N=C/c1ccc(-c2ccc(Br)cc2)o1`, the TGI (786-0 renal) was greater than 100 µM, the TGI (A549 NSCLC) was greater than 100 µM and the TGI (ACHN renal) was 92 µM. The TGI (COLO 205 colon) was greater than 100 µM, the TGI (DLD-1 colon) was greater than 100 µM and the TGI (HCT-116 colon) was greater than 100 µM. For the same compound, the TGI (HOP-62 NSCLC) was greater than 100 µM, the TGI (HOP-92 NSCLC) was 47.8 µM and the TGI (HT29 colon) was greater than 100 µM. For the same compound, the TGI (IGROV1 ovarian) was 92.6 µM, the TGI (K-562 leukemia) was greater than 100 µM and the TGI (KM12 colon) was greater than 100 µM. For the same compound, the TGI (KM20L2 colon) was greater than 100 µM, the TGI (LOX IMVI melanoma) was 56.7 µM and the TGI (LXFL 529 NSCLC) was 71.4 µM. The TGI (M14 melanoma) was greater than 100 µM, the TGI (M19-MEL melanoma) was greater than 100 µM and the TGI (MOLT-4 leukemia) was greater than 100 µM. For the same compound, the TGI (NCI-H226 lung) was 52.2 µM, the TGI (NCI-H23 lung) was 43.1 µM and the TGI (NCI-H460 lung) was greater than 100 µM. For the same compound, the TGI (NCI-H522 lung) was greater than 100 µM, the TGI (OVCAR-3 ovarian) was 80.5 µM and the TGI (OVCAR-4 ovarian) was 50.5 µM. The TGI (OVCAR-5 ovarian) was greater than 100 µM, the TGI (OVCAR-8 ovarian) was 90.1 µM and the TGI (SF-268 CNS) was greater than 100 µM. It also gave a TGI (SF-295 CNS) greater than 100 µM, a TGI (SF-539 CNS) greater than 100 µM and a TGI (SK-MEL-28 melanoma) greater than 100 µM. It also gave a TGI (SK-OV-3 ovarian) of 95.1 µM, a TGI (SNB-19 CNS) of 56.1 µM and a TGI (SNB-75 CNS) greater than 100 µM. It also gave a TGI (SNB-78 CNS) of 75.2 µM, a TGI (SW-620 colon) greater than 100 µM and a TGI (TK-10 renal) of 51.1 µM. It also gave a TGI (U251 CNS) of 56.5 µM, a TGI (UACC-257 melanoma) of 59.6 µM and a TGI (UACC-62 melanoma) of 40.3 µM. For the same compound, the TGI (UO-31 renal) was 66.2 µM.
